Source: patent publication US20260217708A1, “FUSED BENZAZEPINE DERIVATIVES FOR USE IN THE TREATMENT OF CANCER AND EPILEPSY” (UCB BIOPHARMA SRL, priority 2023, published 2026)

What was measured:
[1] = biological target: T1, system Xc^− (Homo sapiens, UniProt Q9UPY5); assay: Cystine-induced glutamate release assay; format: cell-based; design: endogenous in cells; host or cells: H4 cells; conditions: H4 cells, sodium-free HEPES buffer, 50 μM L-Cystine, 2 hours, Amplex Red glutamate readout; for IC50: read-out: pIC50 Cystine-induced glutamate release assay (converted)
T1 sequence (Q9UPY5 1-501): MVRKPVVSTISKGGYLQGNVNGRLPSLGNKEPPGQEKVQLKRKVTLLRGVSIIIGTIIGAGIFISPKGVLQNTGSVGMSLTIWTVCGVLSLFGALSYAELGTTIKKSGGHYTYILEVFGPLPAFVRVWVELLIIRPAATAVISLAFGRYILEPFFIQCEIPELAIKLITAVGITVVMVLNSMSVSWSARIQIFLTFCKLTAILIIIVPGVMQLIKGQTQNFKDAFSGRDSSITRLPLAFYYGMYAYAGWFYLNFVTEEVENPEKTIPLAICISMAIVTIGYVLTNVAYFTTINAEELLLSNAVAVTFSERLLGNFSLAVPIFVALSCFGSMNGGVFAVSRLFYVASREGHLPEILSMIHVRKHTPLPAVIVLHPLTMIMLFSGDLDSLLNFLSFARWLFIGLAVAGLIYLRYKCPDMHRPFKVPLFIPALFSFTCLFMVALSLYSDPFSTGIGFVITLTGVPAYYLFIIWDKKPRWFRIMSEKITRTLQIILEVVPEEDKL
T1 sequence (P08195 1-529 partner): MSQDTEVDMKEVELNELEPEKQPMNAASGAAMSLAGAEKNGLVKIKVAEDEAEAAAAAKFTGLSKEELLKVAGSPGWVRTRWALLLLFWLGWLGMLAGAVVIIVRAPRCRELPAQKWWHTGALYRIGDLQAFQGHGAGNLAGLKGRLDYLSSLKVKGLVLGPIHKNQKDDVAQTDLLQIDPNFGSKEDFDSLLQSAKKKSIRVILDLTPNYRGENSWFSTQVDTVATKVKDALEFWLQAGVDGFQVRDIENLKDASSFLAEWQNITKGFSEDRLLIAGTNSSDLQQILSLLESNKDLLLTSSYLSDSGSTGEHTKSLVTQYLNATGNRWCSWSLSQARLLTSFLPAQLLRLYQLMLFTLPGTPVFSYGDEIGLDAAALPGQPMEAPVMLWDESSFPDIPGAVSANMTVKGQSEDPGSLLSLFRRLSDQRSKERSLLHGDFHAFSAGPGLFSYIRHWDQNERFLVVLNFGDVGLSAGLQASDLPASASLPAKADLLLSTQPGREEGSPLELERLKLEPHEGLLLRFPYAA
Summary of the method: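 IC50 (reported as pIC50) normalized to DMSO 1% and Erastin 50 μM controls, from Amplex Red fluorescence of glutamate exported into supernatant. H4 cells were washed into sodium-free buffer to exclude EAAT transport, then given compound with 50 μM L-cystine for 2 h in the incubator.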

[2] = biological target: T1, system Xc^−; assay: [^14C]L-Cystine uptake assay; format: cell-based; design: endogenous in cells; host or cells: H4 cells; conditions: H4 cells, sodium-free HEPES buffer, 0.5 μM L-[14C]Cystine and 4.5 μM L-Cystine, 1 hour at 37° C.; for IC50: read-out: pIC50 [^14C] L-Cystine uptake assay (converted)
Summary of the method: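 Compound effect is given as pIC50, taken between controls of 1% DMSO and 50 μM Erastin. Human H4 cells were pretreated 15 min with compound in sodium-free buffer, then took up 0.5 μM [14C]cystine with 4.5 μM cold cystine for 1 hour at 37° C, read by scintillation proximity counting.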

Structure (SMILES) | IC50 [1] | IC50 [2] | pIC50 Cystine-induced glutamate release assay [1] | pIC50 [^14C] L-Cystine uptake assay [2]
CO[C@H]1C(=O)N(CC(=O)Nc2ccc(C(F)(F)F)cc2)c2cc(C)nc(Cl)c2-c2cccnc21 (single isomer, unassigned) [#210, Enantiomer (10S) or (10R) of 2-[3-chloro-10-methoxy-5-methyl-9-oxo-4,8,12-triazatricyclo[9.4.0.0^2,7]pentadeca-1(11),2(7),3,5,12,14-hexaen-8-yl]-N-[4-(trifluoromethyl)phenyl]acetamide] | 0.0158 to 0.0398 µM | < 0.0158 µM | – | –
Cc1cc2c(c(F)n1)-c1cccnc1[C@@H](O)C(=O)N2CC(=O)Nc1ccc(C(F)(F)F)cc1 (single isomer, unassigned) [#211, Enantiomer (10S) or (10R) of 2-[3-fluoro-10-hydroxy-5-methyl-9-oxo-4,8,12-triazatricyclo[9.4.0.0^2,7]pentadeca-1(11),2(7),3,5,12,14-hexaen-8-yl]-N-[4-(trifluoromethyl)phenyl]acetamide] | < 0.0158 µM | 0.0158 to 0.0398 µM | – | –
Cc1cc2c(c(F)n1)-c1cccnc1C(O)C(=O)N2CC(=O)Nc1ccc(Br)c(Cl)c1 (single isomer, unassigned) [#213, Enantiomer (10S) or (10R) of N-(4-bromo-3-chloro-phenyl)-2-[(10S)-3-fluoro-10-hydroxy-5-methyl-9-oxo-4,8,12-triazatricyclo[9.4.0.0^2,7]pentadeca-1(11),2(7),3,5,12,14-hexaen-8-yl]acetamide] | 0.0158 to 0.0398 µM | 0.0158 to 0.0398 µM | – | –
COc1cc2c(c(F)n1)-c1cccnc1C(C)C(=O)N2CC(=O)Nc1ccc(C(F)F)cc1 (single isomer, unassigned) [#214, Enantiomer (10S) or (10R) of N-[4-(difluoromethyl)phenyl]-2-[3-fluoro-5-methoxy-10-methyl-9-oxo-4,8,12-triazatricyclo[9.4.0.0^2,7]pentadeca-1(15),2(7),3,5,11,13-hexaen-8-yl]acetamide] | – | – | D (plC50 > about 7.80) | C (about 7.40 < pIC50 ≤ about 7.80)
COc1cc2c(c(F)n1)-c1cccnc1C(C)C(=O)N2CC(=O)Nc1ccc(Cl)c(F)c1 (single isomer, unassigned) [#215, Enantiomer (10S) or (10R) of N-(4-chloro-3-fluoro-phenyl)-2-[3-fluoro-5-methoxy-10-methyl-9-oxo-4,8,12-triazatricyclo[9.4.0.0^2,7]pentadeca-1(15),2(7),3,5,11,13-hexaen-8-yl]acetamide] | – | – | C (about 7.40 < pIC50 ≤ about 7.80) | C (about 7.40 < pIC50 ≤ about 7.80)
COc1cc2c(c(F)n1)-c1cccnc1C(C)C(=O)N2CC(=O)Nc1ccc(F)c(Cl)c1 (single isomer, unassigned) [#216, Enantiomer (10S) or (10R) of N-(3-chloro-4-fluoro-phenyl)-2-(3-fluoro-5-methoxy-10-methyl-9-oxo-4,8,12-triazatricyclo[9.4.0.0^2,7]pentadeca-1(11),2(7),3,5,12,14-hexaen-8-yl)acetamide] | 0.0398 to 0.1 µM | 0.0158 to 0.0398 µM | – | –
Cc1cc2c(c(F)n1)-c1cncnc1C(C)C(=O)N2CC(=O)Nc1ccc(Cl)c(F)c1 (single isomer, unassigned) [#217, Enantiomer (8S) or (8R) of N-(4-chloro-3-fluoro-phenyl)-2-[15-fluoro-8,13-dimethyl-9-oxo-4,6,10,14-tetrazatricyclo[9.4.0.0^2,7]pentadeca-1(15),2,4,6,11,13-hexaen-10-yl]acetamide] | < 0.0158 µM | < 0.0158 µM | – | –
Cc1cc2c(c(F)n1)-c1cncnc1C(C)C(=O)N2CC(=O)Nc1ccc(C(F)F)cc1 (single isomer, unassigned) [#218, Enantiomer (8S) or (8S) of (N-[4-(difluoromethyl)phenyl]-2-[15-fluoro-8,13-dimethyl-9-oxo-4,6,10,14-tetrazatricyclo[9.4.0.0^2,7]pentadeca-1(15),2,4,6,11,13-hexaen-10-yl]acetamide] | 0.0158 to 0.0398 µM | 0.1 to 0.501 µM | – | –

Second part, the compound after the results:

IC50 [1] | IC50 [2] | pIC50 Cystine-induced glutamate release assay [1] | pIC50 [^14C] L-Cystine uptake assay [2] | Structure (SMILES)
< 0.0158 µM | < 0.0158 µM | – | – | Cc1cc2c(c(=O)n1C)-c1ccccc1C(C)C(=O)N2CC(=O)Nc1ccc(Cl)c(F)c1 (single isomer, unassigned) [#219, Enantiomer (7S) or (7R) of N-(4-chloro-3-fluoro-phenyl)-2-[2,3,7-trimethyl-1,6-dioxo-7H-pyrido[4,3-d][3]benzazepin-5-yl]acetamide]
< 0.0158 µM | < 0.0158 µM | – | – | Cc1cc2c(c(Cl)n1)-c1cncnc1C(C)C(=O)N2CC(=O)Nc1ccc(Cl)c(F)c1 (single isomer, unassigned) [#220, Enantiomer (8S) or (8R) of 2-[15-chloro-8,13-dimethyl-9-oxo-4,6,10,14-tetrazatricyclo[9.4.0.0^2,7]pentadeca-1(15),2,4,6,11,13-hexaen-10-yl]-N-(4-chloro-3-fluoro-phenyl)acetamide]
0.0398 to 0.1 µM | 0.1 to 0.501 µM | – | – | Cc1cc2c(c(F)n1)-c1ccnn1C(C)C(=O)N2CC(=O)Nc1ccc(C(F)F)cc1 (single isomer, unassigned) [#221, Enantiomer (7S) or (7R) of N-[4-(difluoromethyl)phenyl]-2-[14-fluoro-7,12-dimethyl-8-oxo-5,6,9,13-tetrazatricyclo[8.4.0.0^2,6]tetradeca-1(14),2,4,10,12-pentaen-9-yl]acetamide]
0.0158 to 0.0398 µM | 0.0398 to 0.1 µM | – | – | Cc1cc2c(c(F)n1)-c1cccnc1C(CO)C(=O)N2CC(=O)Nc1ccc(C(F)F)cc1 (single isomer, unassigned) [#222, Enantiomer (10S) or (10R) of N-[4-(difluoromethyl)phenyl]-2-[3-fluoro-10-(hydroxymethyl)-5-methyl-9-oxo-4,8,12-triazatricyclo[9.4.0.0^2,7]pentadeca-1(15),2(7),3,5,11,13-hexaen-8-yl]acetamide]
< 0.0158 µM | 0.0158 to 0.0398 µM | – | – | Cc1cc2c(c(Cl)n1)-c1cccnc1C(F)C(=O)N2CC(=O)Nc1ccc(C(F)F)cc1 (single isomer, unassigned) [#223, Enantiomer (10R) or (10S) of 2-[3-chloro-10-fluoro-5-methyl-9-oxo-4,8,12-triazatricyclo[9.4.0.0^2,7]pentadeca-1(11),2(7),3,5,12,14-hexaen-8-yl]-N-[4-(difluoromethyl)phenyl]acetamide]
0.0158 to 0.0398 µM | < 0.0158 µM | – | – | Cc1cc2c(c(Cl)n1)-c1cccnc1C(C)C(=O)N2CC(=O)Nc1ccc(Br)c(F)c1 (single isomer, unassigned) [#224, Enantiomer (10S) or (10R) of N-(4-bromo-3-fluoro-phenyl)-2-[3-chloro-5,10-dimethyl-9-oxo-4,8,12-triazatricyclo[9.4.0.0^2,7]pentadeca-1(15),2,4,6,11,13-hexaen-8-yl]acetamide]
< 0.0158 µM | < 0.0158 µM | – | – | Cc1cc2c(c(Cl)n1)-c1cccnc1C(C)C(=O)N2CC(=O)Nc1ccc(C(F)(F)F)cc1F (single isomer, unassigned) [#225, Enantiomer (10S) or (10R) of N-[2-fluoro-4-(trifluoromethyl)phenyl]-2-[3-chloro-5,10-dimethyl-9-oxo-4,8,12-triazatricyclo[9.4.0.0^2,7]pentadeca-1(11),2(7),3,5,12,14-hexaen-8-yl]acetamide]
